Where “and” joins values, the source holds several entries; their conditions need not be identical. Equal values may be shown once.

The text below walks through data of publication PMC4436593, “Endoplasmic reticulum stress-independent activation of unfolded protein response kinases by a small molecule ATP-mimic” (eLife, 2015).

Data set [1] deals with IRE1α-GFP in T-REx293 cells. Kind of data set: IRE1-GFP foci formation in T-REx293 cells (confocal microscopy). The settings on record: doxycycline-induced IRE1α-GFP. The format is cell-based. The text has this: We next used a T-REx293 cell line, containing a genome-integrated doxycycline-inducible IRE1α-GFP fusion gene, to monitor IRE1α oligomerization in vivo ([Li et al., 2010]). In the presence of doxycycline, IRE1α-GFP was expressed and localized to the ER (Figure 2D). […] Furthermore, the foci dissolved by 8 hr of treatment as cells attenuated IRE1α signaling even in the presence of unmitigated ER stress (Figure 2D, upper panels) ([Li et al., 2010]). […] While Tm-induced foci became larger and fewer over time as previously observed, IPA-induced foci remained small and numerous.
T-REx293 cells were split 2 days before imaging onto glass-bottom micro-well dishes (MatTek) at 5 × 10^4 cells/dish. Doxycyclin-containing medium (10 nM doxycycline) was added for 24 hr, withdrawn before imaging and replaced with imaging media (Hank's Balanced Salt Solution [Gibco], 2% FBS, and 5 mM HEPES pH 7.0). Images were acquired on a spinning-disk confocal microscope as described ([Li et al., 2010]).

The subject of data set [2] is mouse embryonic fibroblast (MEFs) cells. Kind of data set: XBP1 mRNA splicing, PERK shift and eIF2α phosphorylation in WT, Ire1−/− and Perk−/− MEFs. It counts as cell-based. Conditions: IPA 1 µM, 4 hr. The source says:
PERK activation by IPA could be due to direct binding of IPA to PERK, or it could be caused by indirect activation of PERK by IRE1. If the latter were true, IPA should not trigger PERK activation in the absence of IRE1. To test this notion, we treated mouse embryonic fibroblasts (MEFs) derived from Ire1α^−/− and Perk^−/− knock-out mice with IPA and monitored XBP1 mRNA splicing, and PERK and eIF2α phosphorylation.
(§1) Cells were lysed and total RNA was collected (Total RNA Kit 1, EZ-RNA, EZNA [USA]). PolyA^+ mRNA was reverse transcribed with M-MLV (Invitrogen), and the resulting cDNA was used as a template for PCR amplification across the fragment of XBP1 cDNA containing the intron. Primers used to amplify human XBP1: 5′-[…]-3′ and 5′-[…]-3′. To amplify murine XBP1: 5′-[…]-3′ and 5′-[…]-3′. PCR conditions were as follows: 95°C for 5 min, 95°C for 1 min, 58°C for 30 s, 72°C for 30 s, and 72°C for 5 min, with 20 cycles of amplification. PCR products were resolved on a 2.5% agarose tris-acetate EDTA (TAE) gel. As previously reported, a hybrid amplicon species consisting of unspliced Xbp-1 annealed to spliced Xbp-1 can also be produced through this PCR reaction and was visible as a slower migrating band above the unspliced amplicon. The same cDNA was used as template for PCR of DERLIN-3 and HERPUD1, both ATF6 targets, and GAPDH, which was used as loading control. Primers used included the following: DERLIN-3, 5′-[…]-3′ and 5′-[…]-3′; HERPUD1-1, 5′-[…]-3′ and 5′-[…]-3′; GAPDH, 5′-[…]-3′ and 5′-[…]-3′. PCR conditions were: 95°C × 5 min, 95°C × 1 min, 56°C × 30 s, 72°C for 30 s for 25 cycles, 72°C for 5 min at 4°C. PCR products were resolved on a 2% agarose TAE gel.
Cells were lysed in 50 mM Tris-HCl, 2% SDS, 10% glycerol, 0.01% bromophenol blue, pH 6.8 supplemented with phosphatase inhibitors (Sigma) and protease inhibitors (Roche). 30 μg to 50 μg of total protein was loaded on each lane of 8% or 10% SDS-PAGE gels. The separated proteins were then transferred onto nitrocellulose membranes for immunoblotting. The following antibodies and dilutions were used: anti-β-actin 1:10,000 (A5441, Sigma), anti-total PERK at 1:1000 (C33E10, Cell Signaling Technology), anti-phospho eIF2α at 1:1000 (3597S, Cell Signaling Technology), anti-total eIF2α at 1:1000 (L57A5, Cell Signaling Technology). After overnight incubation with primary antibody, membranes were washed in PBS with 0.05% Tween and incubated in HRP-coupled secondary antibody anti-rabbit (611–1302, Rockland) or anti-mouse (610–1302, Rockland) diluted at 1:5000 in wash buffer. Immunoreactive bands were detected by chemiluminescence.

The test system of data set [3] is protein translation in HEK293T cells. In words: Metabolic labeling: [35S] methionine incorporation in HEK293T cells. The settings on record: IPA 1 μM. The format is cell-based. Here is the method:
HEK293T cells (500,000 cells/ml) were plated in 12-well flat bottom culture cluster dishes (Costar, Fisher Scientific) 24 hr before the experiment. IPA (1 μM), or a combination of IPA with GSK2606414 (TRC inc. […] Cells lysates were kept on ice for 30 min before high-speed centrifugation followed by denaturation at 95°C. The samples were resolved on an SDS-polyacrylamide gel, which were then stained with Coomassie blue to ascertain protein loading. […] The resulting autoradiograms were quantified using ImageQuant software (Molecular Dynamics).

The test system of data set [4] is ATF6 transcriptional targets HERPUD1 (HERP1) and DERLIN3 (DERL3). In words: ATF6 target mRNAs HERP1 and DERL3 by RT-PCR in HEK293T cells. The settings on record: IPA 1 μM and 4 μM, Tm. The format is cell-based.
Excerpt: To assess the effects of IPA on the activity of the two other UPR branches, we first examined activation of ATF6. To this end, we monitored mRNA levels by RT-PCR for two ATF6-driven transcriptional target genes, HERP1 and DERL3, in HEK293T cells.
as §1, with “PCR conditions were: 95°C × 5 min, 95°C × 1 min, 56°C × 30 s, 72°C for 30 s for 25 cycles, 72°C for 5 min at 4°C. PCR products were resolved on a 2% agarose TAE gel.” left out

A further data set deals with HEK293T cells. In words: HEK293T cell viability (CellTiter-Blue, 24 hr). The format is cell-based. The settings on record: 24 hr. As for the experimental part: HEK293T cells were grown in DMEM (Sigma) complete media containing 10% FBS, 10 units/ml penicillin (Invitrogen), and 10 μg/ml streptomycin (Invitrogen). Cells were plated at a density of 30,000 cells per well in 96-well black plates with clear flat bottoms (Corning, Sigma-Aldrich) 24 hr before the experiment. A 12-point semi-logarithmic dilution series of compounds was made starting at 30 μM not to exceed 0.1% DMSO after final dilution into the growth media. Viability assays were conducted over the course of 24 hr. Cell viability was determined using CellTiter-Blue (Promega) following the manufacturer's instructions. […] Experiments were done in triplicate, and mean values were computed for each data point.
A general note: Resazurin is reduced to fluorescent resorufin, in cell work by metabolically active cells.

For the next data set, the target named is IRE1α-KR43 (Homo sapiens, UniProt O75460). Kind of data set: FRET-based RNA cleavage assay (fluorescent HP17 substrate) of IRE1α-KR43 RNase activity.
Chain of IRE1α-KR43 (O75460 465-977 limits assumed): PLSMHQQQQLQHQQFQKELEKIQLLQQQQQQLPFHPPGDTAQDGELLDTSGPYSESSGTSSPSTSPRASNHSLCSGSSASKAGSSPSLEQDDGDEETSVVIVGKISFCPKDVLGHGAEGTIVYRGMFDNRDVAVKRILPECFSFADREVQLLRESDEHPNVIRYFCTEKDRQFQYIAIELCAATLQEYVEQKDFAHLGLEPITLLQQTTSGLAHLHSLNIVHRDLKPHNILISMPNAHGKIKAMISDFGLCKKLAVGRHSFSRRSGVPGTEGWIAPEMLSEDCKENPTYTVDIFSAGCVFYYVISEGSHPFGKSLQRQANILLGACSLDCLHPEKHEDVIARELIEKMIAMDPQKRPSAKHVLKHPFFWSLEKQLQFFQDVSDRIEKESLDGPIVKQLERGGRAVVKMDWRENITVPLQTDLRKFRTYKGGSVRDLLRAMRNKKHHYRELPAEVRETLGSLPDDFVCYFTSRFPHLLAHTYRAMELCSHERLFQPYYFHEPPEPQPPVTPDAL

Usually EC50 stands for the concentration that produces a half-maximal response. The low end stands for a more potent agent, the high end for a less potent agent. Turning to `CSc1ccc(NC(=O)Nc2ccc(Nc3nccc(Nc4cc(C5CC5)[nH]n4)n3)cc2)cc1` [IPA], the IRE1α-GFP foci formation result in data set [1] is on record as “caused relocalization of IRE1α-GFP into foci”. In addition, in data set [2] (Ire1α−/− MEFs), the “PERK phosphorylation and eIF2α phosphorylation in Ire1α−/− MEFs” value was “pronounced PERK phosphorylation”; the “XBP1 mRNA splicing in Ire1α−/− MEFs” value is on record as “no IPA-induced XBP1 mRNA splicing”. In addition, in data set [2] (Perk−/− MEFs), the “eIF2α phosphorylation in Perk−/− MEFs” value is “only a trace amount of IPA-induced eIF2α phosphorylation”. The “UPR branch activation in wild-type MEFs” value in data set [2] (WT MEFs) was “induced both the PERK and IRE1 branches of the UPR”. Besides, the “incorporation of [35S]-methionine into newly synthesized proteins” value in data set [3] is “impaired”. For the same compound, the “induction of ATF6 target genes HERP1 and DERL3” value in data set [4] was “no detectable induction”. The “LD50 cell viability in the presence of 1 μM GSK” value in the data set on HEK293T cells (IPA + 1 μM GSK2606414) was 6.21 µM and 6.2 µM. For the same compound, the LD50 cell viability with HEK293T cells (IPA alone) was 0.82 µM and 0.8 µM. The compound further came in with an EC50 at IRE1α-KR43 of 360 nM.
